According to patent US5811439A, “Thiazolidinedione derivatives, method for preparing the derivatives and pharmaceutical compositions containing same” (Senga Pharmaceutical Laboratory Inc., priority 1995, dated 1998):

Test system: not listed separately
Test: Acute toxicity test, oral administration to rats
Details: rat, in vivo, orally administered
Protocol: The acute toxicity was determined by an acute toxicity test wherein each sample compound was orally administered to rats. The results (LD50 values) thus obtained are listed below: […]
Work on `O=C1NC(=O)C(Cc2cccc3c2ccn3Cc2ccccc2)S1` (stereo not drawn) [Example 3, 5-(1-benzylindol-4-yl)methyl-2,4-thiazolidinedione] yielded an LD50 of at least 2000 mg/kg. With `O=C1NC(=O)C(Cc2cccc3c2ccn3Cc2ccc(F)cc2)S1` (stereo not drawn) [Example 52, 5-[1-(4-fluorobenzyl)indol-4-yl]-methyl-2,4-thiazolidinedione] the LD50 was at least 2000 mg/kg.

Test system: 3T3-L1 cells
Test: Glucose-uptake test (2-DOG uptake) in 3T3-L1 cells
Format: cell-based
Details: Mus musculus, 3T3-L1, 24 h, 50 μg/ml, cpm divided by amount of proteins, read-out: 2-DOG Uptake (%) at a concentration of 50 μg/ml
Protocol: Glucose-uptake tests as a means for screening compounds for the effect of reducing the blood sugar level were carried out according to the following procedures. 1) Cell: The following cells were used. 3T3-L1 (purchased from Dainippon Pharmaceutical Co. Ltd.) 2) Reagents: The following reagents were used. DMEM (GIBCO); FBS (GIBCO); […] DMSO: dimethylsulfoxide (Wako Pure Chemical Co., Ltd.); ACS2 (Amersham); urea (Wako Pure Chemical Co., Ltd.); protein-determining kit (Bio Rad Code No.). 3) Instrument: The following instrument was used in the test. 24-well plate (Falcon) 3T3-L1 cells were dispersed in a 10% FBS-containing DME medium in a cell concentration of 10000 cells/ml, the resulting cell suspension was dispensed into a 24-well plate in an amount of 1 ml per well and the cells were cultivated in a 5% CO2 -incubator at 37° C. for 5 days. After soaking up the medium in the wells, the plate was washed once with PBS in an amount of 2 ml/well. […] The cells were cultivated in a sample compound-containing medium at 37° C. for 24 hours in a 5%-CO2 -incubator. After the cultivation, the medium was soaked up and the plate was washed three times with 2 ml/well each of PBS. […] After washing with 2 ml/well of PBS, the PBS was sufficiently soaked up. […] The lysate was also inspected for the amount of proteins using 0.2 ml out of the rest of the lysate, according to the microassay method using a protein-determining kit.
Work on `O=C1NC(=O)C(Cc2cccc3c2ccn3CC(=O)c2ccccc2)S1` (stereo not drawn) [Example 187, 5-(1-phenacylindol-4-yl)methyl-2,4-thiazolidinedione] yielded an activity at 50 µg/mL of 174%. With `Cc1cccc(Cn2ccc3c(CC4SC(=O)NC4=O)cccc32)c1` (stereo not drawn) [Example 115, 5-[1-(3-methylbenzyl)indol-4-yl]methyl-2,4-thiazolidinedione] the activity at 50 µg/mL was 162%. With `O=C1NC(=O)C(=Cc2cccc3c2ccn3Cc2ccccc2)S1` [Example 2, 5-(1-benzylindol-4-yl)methylene-2,4-thiazolidinedione] the activity at 50 µg/mL was 182%. For `CC(c1ccccc1)n1ccc2c(CC3SC(=O)NC3=O)cccc21` (stereo not drawn) [Example 174, 5-[1-(α-methylbenzyl)indol-4-yl]methyl-2,4-thiazolidinedione], the activity at 50 µg/mL was 252%. With `O=C1NC(=O)C(Cc2cn(Cc3ccccc3)c3ccccc23)S1` (stereo not drawn) [Example 288, 5-(1-benzylindol-3-yl)methyl-2,4-thiazolidinedione] the activity at 50 µg/mL was 209%. `O=C1NC(=O)C(Cc2cccc3c2ccn3C(=O)Cc2ccccc2)S1` (stereo not drawn) [Example 13, 5-(1-phenylacetylindol-4-yl)methyl-2,4-thiazolidinedione] showed an activity at 50 µg/mL of 150%. Work on `O=C1NC(=O)C(=Cc2cccc3c2ccn3Cc2ccc3ccccc3n2)S1` [Example 147, 5-{1-[(quinol-2-yl)methyl]indol-4-yl}methylene-2,4-thiazolidinedione] yielded an activity at 50 µg/mL of 156%. Compound `N#Cc1cccc(Cn2ccc3c(CC4SC(=O)NC4=O)cccc32)c1` (stereo not drawn) [Example 101, 5-[1-(3-cyanobenzyl)indol-4-yl]methyl-2,4-thiazolidinedione] has an activity at 50 µg/mL of 240%. With `O=C1NC(=O)C(Cc2cccc3c2ccn3Cc2cccc(F)c2)S1` (stereo not drawn) [Example 50, 5-[1-(3-fluorobenzyl)indol-4-yl]-methyl-2,4-thiazolidinedione] the activity at 50 µg/mL was 201%. `C=C(C)[C@@H]1CC=C(Cn2ccc3c(CC4SC(=O)NC4=O)cccc32)CC1` (stereo partly drawn) [Example 208, 5-[1-(4S-p-mentha-1,8-dien-7-yl)indol-4-yl]methyl-2,4-thiazolidinedione] showed an activity at 50 µg/mL of 189%. Compound `O=C1NC(=O)C(Cc2cccc3c2ccn3Cc2ccccc2)S1` (stereo not drawn) [Example 3, 5-(1-benzylindol-4-yl)methyl-2,4-thiazolidinedione] has an activity at 50 µg/mL of 217%. `O=C1NC(=O)C(Cc2cccc3c2ccn3Cc2ccncc2)S1` (stereo not drawn) [Example 6, 5-[1-(4-picolyl)indol-4-yl]methyl-2,4-thiazolidinedione] showed an activity at 50 µg/mL of 166%. In the case of `O=C1NC(=O)C(Cc2cccc3c2ccn3Cc2ccc(F)cc2)S1` (stereo not drawn) [Example 52, 5-[1-(4-fluorobenzyl)indol-4-yl]-methyl-2,4-thiazolidinedione], the activity at 50 µg/mL is reported as 280%. Compound `Nc1ccc(Cn2cc(CC3SC(=O)NC3=O)c3ccccc32)cc1` (stereo not drawn) [Example 256, 5-[1-(4-aminobenzyl)indol-3-yl]methyl-2,4-thiazolidinedione] has an activity at 50 µg/mL of 172%. For `N#Cc1ccc(Cn2cc(CC3SC(=O)NC3=O)c3ccccc32)cc1` (stereo not drawn) [Example 285, 5-[1-(4-cyanobenzyl)indol-3-yl]methyl-2,4-thiazolidinedione], the activity at 50 µg/mL was 225%. Work on `O=C1NC(=O)C(Cc2cccc3c2ccn3S(=O)(=O)c2ccc(F)cc2)S1` (stereo not drawn) [Example 21, 5-[1-(4-fluorobenzenesulfonyl)indol-4-yl]-methyl-2,4-thiazolidinedione] yielded an activity at 50 µg/mL of 162%. For `COc1ccc(Cn2ccc3c(CC4SC(=O)NC4=O)cccc32)cc1OC` (stereo not drawn) [Example 92, 5-[1-(3,4-dimethoxybenzyl)indol-4-yl]methyl-2,4-thiazolidinedione], the activity at 50 µg/mL was 190%. For `O=C1NC(=O)C(Cc2cn(Cc3cc(F)ccc3F)c3ccccc23)S1` (stereo not drawn) [Example 250, 5-[1-(2,5-difluorobenzyl)indol-3-yl]methyl-2,4-thiazolidinedione], the activity at 50 µg/mL was 209%. Compound `O=C1NC(=O)C(Cc2cccc3c2ccn3Cc2cc(F)ccc2F)S1` (stereo not drawn) [Example 62, 5-[1-(2,5-difluorobenzyl)indol-4-yl]-methyl-2,4-thiazolidinedione] has an activity at 50 µg/mL of 192%. `O=C1NC(=O)C(Cc2cccc3[nH]ccc23)S1` (stereo not drawn) [Example 150, 5-(indol-4-yl)methyl-2,4-thiazolidinedione] gave an activity at 50 µg/mL of 191%. `O=C1NC(=O)C(Cc2cccc3c2ccn3Cc2ccc3c(c2)OCO3)S1` (stereo not drawn) [Example 112, 5-(1-piperonylindole-4-yl)methyl-2,4-thiazolidinedione] gave an activity at 50 µg/mL of 155%. Compound `O=C1NC(=O)C(Cc2cccc3c2ccn3Cc2ccc(C(F)(F)F)cc2C(F)(F)F)S1` (stereo not drawn) [Example 83, 5-{1-[2,4-bis(trifluoromethyl)-benzyl]indol-4-yl}methyl-2,4-thiazolidine-dione] has an activity at 50 µg/mL of 199%.
